This test has as its system CD2F1 mice, L1210 leukemia ip, survival T/C. Put plainly: NCI In Vivo Anticancer Drug Screen. Data for tumor model L1210 Leukemia (intraperitoneal) in CD2F1 (CDF1) mice. Particulars: higher = longer survival. The method, boiled down:
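Mice carrying a transplanted tumor received test compound or vehicle alone. The value is the measurement in the treated group divided by that in the vehicle-treated control group.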

The mark [1] stands for this setting: endpoint: mean survival time, dose: 100.0 mg/kg/injection, schedule: Q01DX001 (ip), vehicle: saline with Tween-80.
Where [2] appears, read: endpoint: mean survival time, dose: 200.0 mg/kg/injection, schedule: Q01DX001 (ip), vehicle: saline with Tween-80.
Setting [3] is: endpoint: mean survival time, dose: 100.0 mg/kg/injection, schedule: Q04DX002 (ip), vehicle: saline with Tween-80.
The mark [4] stands for this setting: endpoint: mean survival time, dose: 200.0 mg/kg/injection, schedule: Q04DX002 (ip), vehicle: saline with Tween-80.
The mark [5] stands for this setting: endpoint: mean survival time, dose: 400.0 mg/kg/injection, schedule: Q04DX002 (ip), vehicle: saline with Tween-80.
Setting [6] is: endpoint: mean survival time, dose: 100.0 mg/kg/injection, schedule: Q04DX003 (ip), vehicle: saline.

“And” between values parts separate entries of the source, which are not always exact repeats. Equal entries are not always repeated. Toxic doses and inconclusive results are not listed.

Take `CCN1/C(=C/C=C/C=C/c2sc3ccccc3[n+]2CC)Sc2ccccc21`: the T/C reads like this: (endpoint: mean survival time, dose: 0.08 mg/kg/injection, schedule: Q01DX009 (ip), vehicle: saline) 109 % of control; (endpoint: mean survival time, dose: 0.09 mg/kg/injection, schedule: Q01DX009 (ip), vehicle: saline) 117 % of control; (endpoint: mean survival time, dose: 0.12 mg/kg/injection, schedule: Q01DX009 (ip), vehicle: saline) 114 % of control; (endpoint: mean survival time, dose: 0.16 mg/kg/injection, schedule: Q04DX003 (ip), vehicle: saline) 105 % of control; (endpoint: mean survival time, dose: 0.19 mg/kg/injection, schedule: Q01DX009 (ip), vehicle: saline) 121 % of control; (endpoint: mean survival time, dose: 0.25 mg/kg/injection, schedule: Q04DX003 (ip), vehicle: saline) 112 % of control. Moreover, the T/C is 114 % of control (endpoint: mean survival time, dose: 0.28 mg/kg/injection, schedule: Q01DX009 (ip), vehicle: saline); 101 % of control (endpoint: mean survival time, dose: 0.33 mg/kg/injection, schedule: Q04DX002 (ip), vehicle: saline); 108 % of control (endpoint: mean survival time, dose: 0.38 mg/kg/injection, schedule: Q04DX003 (ip), vehicle: saline); 122 % of control (endpoint: mean survival time, dose: 0.42 mg/kg/injection, schedule: Q01DX009 (ip), vehicle: saline); 112 % of control (endpoint: mean survival time, dose: 0.5 mg/kg/injection, schedule: Q04DX002 (ip), vehicle: saline); 118 % of control (endpoint: mean survival time, dose: 0.57 mg/kg/injection, schedule: Q04DX003 (ip), vehicle: saline). Also, the T/C reads like this: (endpoint: mean survival time, dose: 0.66 mg/kg/injection, schedule: Q01DX001 (ip), vehicle: saline) 120 % of control; (endpoint: mean survival time, dose: 0.76 mg/kg/injection, schedule: Q04DX002 (ip), vehicle: saline) 106 % of control; (endpoint: mean survival time, dose: 0.85 mg/kg/injection, schedule: Q04DX003 (ip), vehicle: saline) 112 % of control; (endpoint: mean survival time, dose: 0.99 mg/kg/injection, schedule: Q01DX001 (ip), vehicle: saline) 118 % of control; (endpoint: mean survival time, dose: 1.1 mg/kg/injection, schedule: Q04DX002 (ip), vehicle: saline) 114 % of control; (endpoint: mean survival time, dose: 1.5 mg/kg/injection, schedule: Q01DX001 (ip), vehicle: saline) 100 % of control. The T/C (endpoint: mean survival time, dose: 1.7 mg/kg/injection, schedule: Q04DX002 (ip), vehicle: saline) is 97 % of control; the T/C (endpoint: mean survival time, dose: 2.2 mg/kg/injection, schedule: Q01DX001 (ip), vehicle: saline) is 114 % of control; the T/C (endpoint: mean survival time, dose: 3.3 mg/kg/injection, schedule: Q01DX001 (ip), vehicle: saline) is 114 % of control.
As to `CCOc1ccc(-n2c(O)c(N=Nc3ccccc3OC)c(=O)n(-c3ccccc3)c2=S)cc1`, the T/C by setting is: under setting [1], 93 % of control; under setting [2], 91 % of control.
As for `CCS(=O)(=O)CCNCCS(=O)(=O)CC`, the T/C runs as follows: under setting [3], 104 % of control; under setting [4], 93 % of control; under setting [5], 104 % of control.
Turning to `CC(C)CCNc1ncnc2c1cnn2C`, the T/C by setting is: (endpoint: mean survival time, dose: 25.0 mg/kg/injection, schedule: Q01DX009 (ip), vehicle: saline) 97 % of control; (endpoint: mean survival time, dose: 50.0 mg/kg/injection, schedule: Q01DX009 (ip), vehicle: saline) 108 % of control; (endpoint: mean survival time, dose: 100.0 mg/kg/injection, schedule: Q01DX009 (ip), vehicle: saline) 86 % of control; under setting [6], 116 % of control.
Turning to `COc1cc(CCN2CC3C(C(=O)O)C4C=CC3(C2)O4)ccc1OCc1ccccc1` (configuration not stated), the T/C is, setting by setting: under setting [3], 95 % of control; under setting [4], 95 % of control; under setting [5], 98 % of control.
For `CCC1(O)C(=O)OCc2c1cc1n(c2=O)Cc2cc3ccc(O)cc3nc2-1` (configuration not stated), the T/C is, setting by setting: (endpoint: median survival time, dose: 3.75 mg/kg/injection, schedule: Q04DX002 (ip), vehicle: Klucel (hydroxypropylcellulose) (HPC)) 121 % of control; (endpoint: median survival time, dose: 7.5 mg/kg/injection, schedule: Q04DX002 (ip), vehicle: Klucel (hydroxypropylcellulose) (HPC)) 272 % of control; (endpoint: median survival time, dose: 15.0 mg/kg/injection, schedule: Q04DX002 (ip), vehicle: Klucel (hydroxypropylcellulose) (HPC)) 190 % of control; (endpoint: median survival time, dose: 30.0 mg/kg/injection, schedule: Q04DX002 (ip), vehicle: Klucel (hydroxypropylcellulose) (HPC)) 152 % of control; (endpoint: median survival time, dose: 60.0 mg/kg/injection, schedule: Q04DX002 (ip), vehicle: Klucel (hydroxypropylcellulose) (HPC)) 154 % of control and 357 % of control.
Consider `CCOC1CC2c3ccccc3C1c1cccc[n+]12` (configuration not stated), for which, under setting [6], the T/C is 104 % of control.
As for `OC(Cc1nc2ccccc2[nH]1)c1nc2ccccc2[nH]1` (configuration not stated), the T/C is 104 % of control (endpoint: mean survival time, dose: 50.0 mg/kg/injection, schedule: Q01DX009 (ip), vehicle: Klucel (hydroxypropylcellulose) (HPC)); 97 % of control (endpoint: mean survival time, dose: 100.0 mg/kg/injection, schedule: Q01DX009 (ip), vehicle: Klucel (hydroxypropylcellulose) (HPC)); 101 % of control (endpoint: mean survival time, dose: 200.0 mg/kg/injection, schedule: Q01DX009 (ip), vehicle: Klucel (hydroxypropylcellulose) (HPC)).
With `O=C(Cl)CCc1cc(Cl)no1`, the T/C is, setting by setting: (endpoint: mean survival time, dose: 25.0 mg/kg/injection, schedule: Q04DX003 (ip), vehicle: olive oil, sesame oil, peanut oil) 96 % of control; (endpoint: mean survival time, dose: 50.0 mg/kg/injection, schedule: Q04DX003 (ip), vehicle: olive oil, sesame oil, peanut oil) 96 % of control; (endpoint: mean survival time, dose: 100.0 mg/kg/injection, schedule: Q04DX003 (ip), vehicle: olive oil, sesame oil, peanut oil) 103 % of control; (endpoint: mean survival time, dose: 200.0 mg/kg/injection, schedule: Q04DX003 (ip), vehicle: olive oil, sesame oil, peanut oil) 94 % of control; (endpoint: mean survival time, dose: 400.0 mg/kg/injection, schedule: Q04DX003 (ip), vehicle: olive oil, sesame oil, peanut oil) 103 % of control.
As to `O=S1(=O)CC23CC=CCC2(CC=CC3)C1` (configuration not stated), the T/C was 100 % of control (endpoint: mean survival time, dose: 100.0 mg/kg/injection, schedule: Q04DX003 (ip), vehicle: other) and 102 % of control (endpoint: mean survival time, dose: 200.0 mg/kg/injection, schedule: Q04DX003 (ip), vehicle: other).
For the molecule `CC(=O)N/N=C1\CC2CCC1(C)C2(C)C` (configuration not stated), the T/C by setting is: (endpoint: mean survival time, dose: 100.0 mg/kg/injection, schedule: Q01DX001 (ip), vehicle: saline) 102 % of control; (endpoint: mean survival time, dose: 200.0 mg/kg/injection, schedule: Q01DX001 (ip), vehicle: saline) 102 % of control; (endpoint: mean survival time, dose: 400.0 mg/kg/injection, schedule: Q01DX001 (ip), vehicle: saline) 98 % of control.
Turning to `O=C1C=C(SCCO)C(=O)c2ccccc21`, the T/C is, setting by setting: (endpoint: mean survival time, dose: 0.63 mg/kg/injection, schedule: Q01DX009 (ip), vehicle: saline sonified) 91 % of control; (endpoint: mean survival time, dose: 1.25 mg/kg/injection, schedule: Q01DX009 (ip), vehicle: saline sonified) 94 % of control; (endpoint: mean survival time, dose: 1.25 mg/kg/injection, schedule: Q04DX003 (ip), vehicle: saline with Tween-80) 92 % of control; (endpoint: mean survival time, dose: 2.5 mg/kg/injection, schedule: Q01DX009 (ip), vehicle: saline sonified) 105 % of control; (endpoint: mean survival time, dose: 2.5 mg/kg/injection, schedule: Q04DX003 (ip), vehicle: saline with Tween-80) 90 % of control.
On to `CC(C)(C)S/C(=N/N=O)NN=O`, for which the T/C under setting [1] was 100 % of control; the T/C under setting [2] was 102 % of control; the T/C (endpoint: mean survival time, dose: 400.0 mg/kg/injection, schedule: Q01DX001 (ip), vehicle: saline with Tween-80) was 94 % of control.
As to `C[N+](C)(C)C(C1=CCCC1=O)c1ccccc1` (configuration not stated), the T/C is 103 % of control (endpoint: mean survival time, dose: 75.0 mg/kg/injection, schedule: Q01DX001 (ip), vehicle: saline); 91 % of control (endpoint: mean survival time, dose: 150.0 mg/kg/injection, schedule: Q01DX001 (ip), vehicle: saline); 100 % of control (endpoint: mean survival time, dose: 300.0 mg/kg/injection, schedule: Q01DX001 (ip), vehicle: saline).
For `O=C1NC2COC3COc4ccccc4OC3C2N1Cc1ccccc1` (configuration not stated), the T/C is, setting by setting: (endpoint: mean survival time, dose: 75.0 mg/kg/injection, schedule: Q01DX001 (ip), vehicle: saline with Tween-80) 93 % of control; (endpoint: mean survival time, dose: 150.0 mg/kg/injection, schedule: Q01DX001 (ip), vehicle: saline with Tween-80) 95 % of control; (endpoint: mean survival time, dose: 300.0 mg/kg/injection, schedule: Q01DX001 (ip), vehicle: saline with Tween-80) 93 % of control.
Regarding `CC1(C)OC2C(CN=[N+]=[N-])OC(n3cnc4c(=O)[nH]c(N)nc43)C2O1` (configuration not stated), the T/C was 109 % of control (endpoint: mean survival time, dose: 100.0 mg/kg/injection, schedule: Q01DX001 (ip), vehicle: Klucel (hydroxypropylcellulose) (HPC)); 97 % of control (endpoint: mean survival time, dose: 200.0 mg/kg/injection, schedule: Q01DX001 (ip), vehicle: Klucel (hydroxypropylcellulose) (HPC)); 97 % of control (endpoint: mean survival time, dose: 400.0 mg/kg/injection, schedule: Q01DX001 (ip), vehicle: Klucel (hydroxypropylcellulose) (HPC)).
In the case of `c1ccc2c(c1)Cn1c-2nc2ccccc21`, the T/C is 97 % of control (endpoint: mean survival time, dose: 100.0 mg/kg/injection, schedule: Q04DX003 (ip), vehicle: saline with Tween-80); 97 % of control (endpoint: mean survival time, dose: 200.0 mg/kg/injection, schedule: Q04DX003 (ip), vehicle: saline with Tween-80); 94 % of control (endpoint: mean survival time, dose: 400.0 mg/kg/injection, schedule: Q04DX003 (ip), vehicle: saline with Tween-80).

For the origin of these results see PubChem BioAssay AID256 (DTP/NCI, 2004).
